Data published in DBAASP.
≈ marks a conversion by molar mass, not a printed value.

What was measured:
Assay in all cases: ≥ marks a high value that may be exact or a test limit, other limits are often not marked, values filed in µg/mL are converted to µM
Bacillus subtilis = system: Bacillus subtilis
Bacillus cereus = system: Bacillus cereus
Escherichia coli = system: Escherichia coli
Staphylococcus aureus = system: Staphylococcus aureus
Candida albicans = system: Candida albicans
[1] = system: Acinetobacter baumannii ATCC 19606
Acinetobacter baumannii = system: Acinetobacter baumannii
Escherichia coli UB1005 = system: Escherichia coli UB1005
[2] = system: Staphylococcus aureus ATCC 25923
[3] = system: Staphylococcus epidermidis ATCC 12228
[4] = system: Staphylococcus aureus ATCC 29213
[5] = system: Escherichia coli ATCC 25922
[6] = system: Salmonella enterica subsp. enterica serovar Typhimurium C77-31
[7] = system: Pseudomonas aeruginosa ATCC 27853
[8] = system: Escherichia coli DH5alpha

Row | SMILES | MIC (Bacillus subtilis) | MIC (Bacillus cereus) | MIC (Escherichia coli) | further results
1 | CC(C)C[C@H](NC(=O)[C@@H](N)Cc1ccccc1)C(=O)N1CCC[C@H]1C(=O)N1CCC[C@H]1C(=O)N[C@@H](CO)C(=O)N1CCC[C@H]1C(=O)N[C@@H](Cc1c[nH]c2ccccc12)C(=O)N[C@@H](CCCCN)C(=O)N[C@@H](CCC(=O)O)C(=O)N[C@H](C(=O)N[C@@H](Cc1ccccc1)C(=O)N[C@@H](CCCN=C(N)N)C(=O)N[C@H](C(=O)N[C@@H](CO)C(=O)O)[C@@H](C)O)[C@@H](C)O [FLPPSPWKETFRTS] | ≥ 50.2 µM |  | 25.1 µM (≈ 42.5 µg/mL) | MIC (Candida albicans): 12.6 µM (≈ 21.3 µg/mL); MIC (Staphylococcus aureus): 12.6 µM (≈ 21.3 µg/mL)
2 | CC[C@H](C)[C@H](NC(=O)[C@H](CCCNC(=N)N)NC(=O)[C@@H](NC(=O)[C@@H](NC(=O)[C@@H]1CCCN1C(=O)[C@@H](NC(=O)[C@@H](NC(=O)[C@@H](NC(=O)[C@@H]1CCCN1C(=O)CNC(=O)[C@H](Cc1ccc(O)cc1)NC(=O)[C@H](CCCCN)NC(=O)[C@H](CCCCN)NC(=O)[C@H](Cc1c[nH]c2ccccc12)NC(=O)[C@H](C)NC(=O)[C@H](CCCNC(=N)N)NC(=O)[C@H](CC(C)C)NC(=O)[C@@H](NC(=O)[C@H](CCCCN)NC(=O)[C@H](CCCNC(=N)N)NC(=O)CNC(=O)[C@H](CC(C)C)NC(=O)[C@H](CO)NC(=O)[C@H](CCCNC(=N)N)NC(=O)[C@H](CC(C)C)NC(=O)CNC(=O)CN)[C@@H](C)CC)[C@@H](C)CC)[C@@H](C)CC)C(C)C)[C@@H](C)CC)[C@@H](C)CC)C(N)=O [GGLRSLGRKILRAWKKYGPIIVPIIRI] |  |  |  | MIC [1]: 1.63 µM (≈ 5 µg/mL); MIC (Acinetobacter baumannii): 2.3 µM (≈ 7.07 µg/mL)
3 | CC[C@H](C)[C@H](NC(=O)CN)C(=O)N[C@@H](Cc1ccccc1)C(=O)NCC(=O)N[C@@H](CCCCN)C(=O)N[C@H](C(=O)N[C@@H](CC(C)C)C(=O)NCC(=O)N[C@H](C(=O)NCC(=O)N[C@@H](CCCCN)C(=O)N[C@@H](CCCCN)C(=O)N[C@H](C(=O)N[C@@H](CC(C)C)C(=O)N[C@H]1CSSC[C@@H](C(=O)O)NC(=O)[C@H](C(C)C)NC(=O)CNC(=O)[C@H](CO)NC(=O)[C@H](CC(C)C)NC(=O)CNC1=O)C(C)C)C(C)C)[C@@H](C)CC [GIFGKILGVGKKVLCGLSGVC] | 2.88 µM (≈ 5.89 µg/mL) |  | 11.5 µM (≈ 23.6 µg/mL) | MIC (Candida albicans): 5.76 µM (≈ 11.8 µg/mL); MIC (Staphylococcus aureus): 2.88 µM (≈ 5.89 µg/mL)
4 | CC[C@H](C)[C@H](NC(=O)[C@H](C)NC(=O)[C@H](CCCCN)NC(=O)[C@H](CC(C)C)NC(=O)[C@@H](NC(=O)[C@H](CCCCN)NC(=O)CNC(=O)[C@@H](NC(=O)[C@H](CCCCN)NC(=O)[C@H](CCCCN)NC(=O)[C@H](CC(C)C)NC(=O)[C@H](CCCN=C(N)N)NC(=O)[C@H](CCCCN)NC(=O)[C@H](CCCN=C(N)N)NC(=O)[C@@H](NC(=O)[C@H](CCCCN)NC(=O)[C@H](CCCCN)NC(=O)[C@H](CCCN=C(N)N)NC(=O)[C@H](CC(C)C)NC(=O)[C@H](CCCN=C(N)N)NC(=O)[C@H](CCCN=C(N)N)NC(=O)[C@H](Cc1ccccc1)NC(=O)[C@H](CCCN=C(N)N)NC(=O)CN)[C@@H](C)O)[C@@H](C)CC)C(C)C)C(N)=O [GRFRRLRKKTRKRLKKIGKVLKAI] |  |  |  | MIC (Escherichia coli UB1005): 16 µM (≈ 47.2 µg/mL); MIC [2]: 128 µM (≈ 378 µg/mL); MIC [3]: 128 µM (≈ 378 µg/mL); MIC [4]: 128 µM (≈ 378 µg/mL); MIC [5]: 16 µM (≈ 47.2 µg/mL); MIC [6]: ≥ 128 µM
5 | C[C@H](NC(=O)[C@@H]1CCCN1C(=O)CNC(=O)[C@H](CO)NC(=O)[C@H](CCCN=C(N)N)NC(=O)CNC(=O)[C@@H](NC(=O)[C@@H](N)Cc1cnc[nH]1)[C@@H](C)O)C(=O)N[C@H](C(=O)NCC(=O)N[C@@H](Cc1cnc[nH]1)C(=O)N[C@@H](CO)C(=O)NCC(=O)N[C@@H](Cc1cnc[nH]1)C(=O)N[C@@H](CO)C(=O)N[C@@H](CO)C(=O)N[C@H](C(=O)N[C@@H](Cc1cnc[nH]1)C(=O)NCC(=O)N[C@@H](CO)C(=O)O)[C@@H](C)O)[C@@H](C)O [HTGRSGPATGHSGHSSTHGS] |  | ≥ 134 µM | > 134 µM | 
6 | CC[C@H](C)[C@H](N)C(=O)N[C@@H](CC(N)=O)C(=O)N[C@@H](Cc1c[nH]c2ccccc12)C(=O)N[C@@H](CCCCN)C(=O)N[C@@H](CCCCN)C(=O)N[C@H](C(=O)N[C@@H](C)C(=O)N[C@@H](CO)C(=O)N[C@H](C(=O)NCC(=O)N[C@@H](CCCCN)C(=O)N[C@@H](CCC(=O)O)C(=O)N[C@H](C(N)=O)C(C)C)[C@@H](C)CC)[C@@H](C)CC [INWKKIASIGKEV] | ≥ 100 µM |  | 100 µM (≈ 148 µg/mL) | 
7 | CC[C@H](C)[C@H](NC(=O)[C@H](Cc1ccccc1)NC(=O)[C@@H](NC(=O)[C@H](Cc1ccc(O)cc1)NC(=O)[C@H](CCCN=C(N)N)NC(=O)[C@H](CCCCN)NC(=O)[C@H](CCCN=C(N)N)NC(=O)[C@H](CCCCN)NC(=O)[C@H](Cc1c[nH]c2ccccc12)NC(=O)[C@H](CC(C)C)NC(=O)[C@@H](NC(=O)[C@@H](N)Cc1ccc(O)cc1)C(C)C)[C@@H](C)CC)C(=O)O [YVLWKRKRYIFI] | 3.56 µM (≈ 6 µg/mL) |  |  | MIC [7]: 8.9 µM (≈ 15 µg/mL); MIC [8]: 3.56 µM (≈ 6 µg/mL); MIC [2]: 1.78 µM (≈ 3 µg/mL)

The next lines start with results.

Row | MIC (Bacillus subtilis) | MIC (Bacillus cereus) | MIC (Escherichia coli) | SMILES | further results
8 | 0.548 µM (≈ 1.37 µg/mL) |  |  | CC(C)C[C@H](NC(=O)[C@H](CCC(=O)O)NC(=O)[C@H](CC(C)C)NC(=O)[C@H](CO)NC(=O)[C@H](CC(=O)O)NC(=O)[C@H](Cc1ccc(O)cc1)NC(=O)[C@H](CCCN=C(N)N)NC(=O)[C@H](Cc1ccc(O)cc1)NC(=O)CNC(=O)[C@H](Cc1ccccc1)NC(=O)[C@H](CCCCN)NC(=O)[C@H](CCCCN)NC(=O)[C@H](Cc1ccc(O)cc1)NC(=O)[C@H](CC(=O)O)NC(=O)[C@H](Cc1ccccc1)NC(=O)[C@@H](NC(=O)[C@@H](N)CC(=O)O)[C@@H](C)O)C(=O)N[C@@H](CCC(=O)O)C(=O)NCC(=O)N[C@@H](CCCN=C(N)N)C(=O)O [DTFDYKKFGYRYDSLELEGR] | 
9 |  | ≥ 116 µM | 14.5 µM (≈ 32 µg/mL) | CC(C)C[C@H](NC(=O)[C@@H](N)Cc1ccccc1)C(=O)NCC(=O)N[C@@H](CCCCN)C(=O)N[C@H](C(=O)N[C@@H](Cc1ccccc1)C(=O)N[C@@H](CCCCN)C(=O)N[C@@H](CCCCN)C(=O)N[C@@H](C)C(=O)N[C@H](C(=O)N[C@@H](CCCCN)C(=O)N[C@H](C(=O)N[C@@H](Cc1ccccc1)C(=O)N1CCC[C@H]1C(=O)N[C@@H](C)C(=O)N[C@H](C(=O)N[C@@H](Cc1ccccc1)C(=O)NCC(=O)N[C@@H](CCCCN)C(=O)N[C@H](C(=O)O)C(C)C)C(C)C)C(C)C)C(C)C)C(C)C [FLGKVFKKAVKVFPAVFGKV] | MIC (Staphylococcus aureus): 116 µM (≈ 256 µg/mL)
10 |  | ≥ 124 µM | > 124 µM | CC[C@H](C)[C@H](NC(=O)[C@H](CO)NC(=O)[C@H](CCC(N)=O)NC(=O)[C@H](CC(C)C)NC(=O)[C@H](C)NC(=O)[C@H](CC(=O)O)NC(=O)[C@H](CCCCN)NC(=O)[C@H](CCCCN)NC(=O)[C@H](CC(C)C)NC(=O)CN)C(=O)N[C@H](C(=O)N[C@@H](CCCCN)C(=O)N[C@@H](CCCCN)C(=O)N[C@@H](C)C(=O)N[C@@H](CCC(N)=O)C(=O)N[C@@H](CC(C)C)C(=O)N[C@@H](C)C(=O)N[C@@H](C)C(=O)N[C@@H](CCSC)C(=O)NCC(=O)O)C(C)C [GLKKDALQSIVKKAQLAAMG] | 
11 |  | ≥ 119 µM | > 119 µM | CC[C@H](C)[C@H](NC(=O)[C@H](CCSC)NC(=O)[C@@H](NC(=O)[C@H](CCCCN)NC(=O)[C@H](CO)NC(=O)CNC(=O)[C@@H](NC(=O)[C@@H](NC(=O)[C@H](CCCCN)NC(=O)[C@@H](NC(=O)[C@@H]1CCCN1C(=O)[C@H](CO)NC(=O)[C@H](CCCCN)NC(=O)[C@H](CC(C)C)NC(=O)[C@@H]1CCCN1C(=O)[C@@H](NC(=O)[C@H](CCCN=C(N)N)NC(=O)[C@@H](N)CO)C(C)C)C(C)C)[C@@H](C)CC)C(C)C)C(C)C)C(=O)N[C@@H](Cc1ccccc1)C(=O)N[C@@H](C)C(=O)O [SRVPLKSPVKIVGSKVMIFA] | 
12 |  | ≥ 128 µM | > 128 µM | CC[C@H](C)[C@H](NC(=O)[C@@H](NC(=O)[C@@H](NC(=O)[C@H](CO)NC(=O)[C@@H]1CCCN1C(=O)[C@H](CCCCN)NC(=O)CNC(=O)CNC(=O)[C@H](CCCCN)NC(=O)[C@@H](NC(=O)[C@H](CO)NC(=O)[C@H](Cc1ccccc1)NC(=O)[C@@H](N)C(C)C)C(C)C)C(C)C)C(C)C)C(=O)N[C@@H](CCCCN)C(=O)N[C@H](C(=O)N[C@H](C(=O)N[C@H](C(=O)N[C@@H](C)C(=O)N[C@@H](CO)C(=O)N[C@H](C(=O)O)[C@@H](C)O)C(C)C)C(C)C)C(C)C [VFSVKGGKPSVVIKVVVAST] | 
13 |  | ≥ 122 µM | > 122 µM | CC(C)C[C@H](NC(=O)CNC(=O)[C@H](CCCCN)NC(=O)[C@@H](NC(=O)[C@H](CC(C)C)NC(=O)[C@@H](NC(=O)[C@H](Cc1ccccc1)NC(=O)[C@H](Cc1ccccc1)NC(=O)[C@H](CCCCN)NC(=O)[C@H](CCCCN)NC(=O)[C@H](C)NC(=O)[C@@H](NC(=O)[C@@H](N)C(C)C)C(C)C)C(C)C)C(C)C)C(=O)N[C@@H](C)C(=O)N1CCC[C@H]1C(=O)N[C@H](C(=O)N[C@@H](CC(C)C)C(=O)N[C@@H](CO)C(=O)N1CCC[C@H]1C(=O)N[C@@H](CO)C(=O)O)C(C)C [VVAKKFFVLVKGLAPVLSPS] | 
